# Read-outs that look alike come from different tables or passages of the source.
# Key:
# [1] = tested on: lymphoma cell line SU-DHL-4; test: Standard 6-day growth-death assay, SU-DHL-4; assay type: cell-based; settings: single agent or fixed 1:1 combination
# Description: The majority cell lines were obtained from GSK BioCat group, American Type Culture Collection (ATCC), or the Deutsche Sammlung von Mikroorganismen and Zellbulturen (DSMZ). All cell lines were maintained in growth medium in T75 cm^2 flasks, incubated at 37° C. with 5% CO2 and split every 3 to 4 days. Growth media conditions and cell line information are detailed in Table 1. Cells were counted using the Vi-Cell Analyzer (Beckman Coulter ViCell) to obtain viable cell counts.
# Optimal cell seeding density was determined for all cell lines by monitoring proliferation over a range of seeding densities in 384-well format and identifying the seeding density at which cells grew logarithmically throughout six days. 50 uL of cells per well were plated in 384-well plates at the optimal seeding density in preferred supplemented culture media. Three plates were prepared per cell line and incubated overnight at 37° C. in 5% CO2.
# In these studies, lymphoma cell lines were treated with PRMT5 inhibitor, compound A and BCL-2 targeted inhibitor, ABT-199 single agent or in combination using a fixed 1:1 ratio of each inhibitor over a 20-point titration. For compound A single and fixed 1:1 ratio combination with ABT-199 cell proliferation assay, cells were treated in duplicate with a 20-point, two-fold dilution series of Compound A, ABT-199 (≥14 μM top dose) single or combo treatment, and ≤0.15% DMSO final concentration. Plates were incubated for six days at the conditions described above. Cell growth was measured using CellTiter-Glo (Promega) and luminescence signal was detected with a BioTek Synergy Neo microplate reader. A plate of untreated cells was read at the time of compound/biologic addition to determine the T0 value representing the starting number of cells. Data were fit with a four-parameter equation to generate a concentration response curve using Assay Client software.
# Results were background corrected by subtraction of values from wells containing no cells, expressed as a percentage of the T0 value (value at time=0), and plotted against compound concentration. The T0 value was normalized to 100% and represents the number of cells present at the time of compound addition. The cellular response was determined for each compound using a 4- or 6-parameter curve fit of cell viability against concentration using Assay Client software. Growth IC50 (gIC50) values correspond to the concentration intersecting the mid-point of the growth window (between DMSO and T0 values). Growth IC100 (gIC100) values correspond to the concentration at which 100% growth inhibition is achieved, based on the growth window. The Ymin−T0 value, a measure of net population cell growth or death, is calculated by subtracting the T0 value (100%) from the Ymin value (%) that is determined from the fit of the concentration response curve. Death EC50 (dEC50) values correspond to the concentration at which 50% net cell death is observed.
# Individual curves were quality checked for three criteria: outlier data points, cell growth (population doubling ≥1.5), and proper curve fitting. […] Individual curves were QC checked for outlier data points, cell growth (population doubling ≥1.5), and proper curve fitting. Obvious outlier data points were omitted only as needed to ensure proper curve fit.
# For fixed ratio screening, combination activity was assessed by the fold change in gIC50 compared to the 2 single agent curves by dividing the compound ratio as necessary. Combinations showing >3-fold and >5-fold change from single agent are described as below: • Fold changes ≥5 are considered to represent strong synergy. • Fold changes between 3.0 and 4.9 are considered to represent weak synergy. • Fold changes <3 are considered to represent no synergy.
# lymphoma cell line DB = test: Serial dilutions: fixed ABT-199 concentration with Compound A titration, six-day cell proliferation; assay type: cell-based; settings: for EC50 / IC50: 144 h
# Description: Serial dilutions were performed for the combination to ascertain the change in gIC50, gIC100 and dEC50 when the inhibitors are used together in a PRMT5 inhibitor cell proliferation. A first compound plate was prepared where PRMT5 inhibitor, Compound A, was prepared with a 20-point, two-fold dilution series of compound A from column 1 to 20. A second compound plate was prepared using the BCL-2 inhibitor ABT-199. ABT-199 was titrated in a 16-point 2-fold dilution series from row A to Q. A third plate was then created by added equal volume of 12 ul (ABT-199) from each well in the second plate into the corresponding well in the first plate. The third plate comprised rows from A to Q, each row comprising a fixed concentration of ABT-199. Columns 1-20 comprised varying concentrations of compound A from the 20-point dilution. Plates were incubated for six days at the conditions described above. Lymphoma cell line DB was treated with the solution in each of the wells. Cell growth was measured using CellTiter-Glo (Promega) and luminescence signal was detected with a BioTek Synergy Neo microplate reader. A plate of untreated cells was read at the time of compound/biologic addition to determine the T0 value representing the starting number of cells. Data were fit with a four-parameter equation to generate a concentration response curve for each row using Assay Client software. A comparison was made across each row in the third plate to determine, when keeping a fixed concentration of ABT-199, what concentration of compound A is needed to reach the gIC50, gIC100 or dEC50 respectively and the fold change compared to treating the same cell with compound A alone.
# Tables 4a-c show the results of the above serial dilution experiments wherein ‘fold change’ is the difference between the amount of compound A needed to achieve gIC50, gIC100 or dEC50 respectively, compared to the amount of compound A needed to achieve gIC50, gIC100 or dEC50 respectively when compound A is given as a single agent.
smiles,measurement,setting,value
O=C(NC[C@H](O)CN1CCc2ccccc2C1)c1ccnc(NC2CCC2)c1 [Compound A],EC50,"[1]; Homo sapiens, 144 h, average of n=2, read-out: dEC50",> 14700 nM
same,IC50,"[1]; Homo sapiens, 144 h, average of n=2, read-out: gIC50",743 nM
same,Ymin-T0,[1]; average of n=2,1083%
same,gIC100,[1]; average of n=2,14.663 µM
same,EC50,"lymphoma cell line DB; single agent, six days, read-out: dEC50",> 7330 nM
same,IC50,"lymphoma cell line DB; single agent, six days, read-out: gIC50",631 nM
same,EC50,"lymphoma cell line DB; with fixed ABT-199 1 nM, six days, read-out: Compound A required for dEC50",> 7330 nM
same,IC50,"lymphoma cell line DB; with fixed ABT-199 1 nM, six days, read-out: compound A required for gIC50",445 nM
same,EC50,"lymphoma cell line DB; with fixed ABT-199 2 nM, six days, read-out: Compound A required for dEC50",> 7330 nM
same,IC50,"lymphoma cell line DB; with fixed ABT-199 2 nM, six days, read-out: compound A required for gIC50",509 nM
same,EC50,"lymphoma cell line DB; with fixed ABT-199 4 nM, six days, read-out: Compound A required for dEC50",> 7330 nM
same,IC50,"lymphoma cell line DB; with fixed ABT-199 4 nM, six days, read-out: compound A required for gIC50",514 nM
same,EC50,"lymphoma cell line DB; with fixed ABT-199 7 nM, six days, read-out: Compound A required for dEC50",> 7330 nM
same,IC50,"lymphoma cell line DB; with fixed ABT-199 7 nM, six days, read-out: compound A required for gIC50",449 nM
same,EC50,"lymphoma cell line DB; with fixed ABT-199 14 nM, six days, read-out: Compound A required for dEC50",> 7330 nM
same,IC50,"lymphoma cell line DB; with fixed ABT-199 14 nM, six days, read-out: compound A required for gIC50",387 nM
same,EC50,"lymphoma cell line DB; with fixed ABT-199 29 nM, six days, read-out: Compound A required for dEC50",> 7330 nM
same,IC50,"lymphoma cell line DB; with fixed ABT-199 29 nM, six days, read-out: compound A required for gIC50",351 nM
same,EC50,"lymphoma cell line DB; with fixed ABT-199 57 nM, six days, read-out: Compound A required for dEC50",5370 nM
same,IC50,"lymphoma cell line DB; with fixed ABT-199 57 nM, six days, read-out: compound A required for gIC50",247 nM
same,EC50,"lymphoma cell line DB; with fixed ABT-199 115 nM, six days, read-out: Compound A required for dEC50",4660 nM
same,IC50,"lymphoma cell line DB; with fixed ABT-199 115 nM, six days, read-out: compound A required for gIC50",209 nM
same,EC50,"lymphoma cell line DB; with fixed ABT-199 229 nM, six days, read-out: Compound A required for dEC50",4660 nM
same,IC50,"lymphoma cell line DB; with fixed ABT-199 229 nM, six days, read-out: compound A required for gIC50",115 nM
same,EC50,"lymphoma cell line DB; with fixed ABT-199 458 nM, six days, read-out: Compound A required for dEC50",3920 nM
same,IC50,"lymphoma cell line DB; with fixed ABT-199 458 nM, six days, read-out: compound A required for gIC50",119 nM
same,EC50,"lymphoma cell line DB; with fixed ABT-199 916 nM, six days, read-out: Compound A required for dEC50",2530 nM
same,IC50,"lymphoma cell line DB; with fixed ABT-199 916 nM, six days, read-out: compound A required for gIC50",78 nM
same,EC50,"lymphoma cell line DB; with fixed ABT-199 1833 nM, six days, read-out: Compound A required for dEC50",2390 nM
same,IC50,"lymphoma cell line DB; with fixed ABT-199 1833 nM, six days, read-out: compound A required for gIC50",74 nM
same,EC50,"lymphoma cell line DB; with fixed ABT-199 3666 nM, six days, read-out: Compound A required for dEC50",2250 nM
same,IC50,"lymphoma cell line DB; with fixed ABT-199 3666 nM, six days, read-out: compound A required for gIC50",80 nM
same,EC50,"lymphoma cell line DB; with fixed ABT-199 7331 nM, six days, read-out: Compound A required for dEC50",2300 nM
same,IC50,"lymphoma cell line DB; with fixed ABT-199 7331 nM, six days, read-out: compound A required for gIC50",15 nM
same,"Fold change over compound A single agent gIC50 (631 nM, most potent of the two agents)",lymphoma cell line DB; single agent,1.0
same,"Fold change over compound A single agent gIC100 (6489 nM, most potent of the two agents)",lymphoma cell line DB; single agent,1.0
same,gIC100,"lymphoma cell line DB; single agent, six days",6.489 µM
same,"Fold change over compound A single agent gIC50 (631 nM, most potent of the two agents)",lymphoma cell line DB; with fixed ABT-199 1 nM,1.4
same,"Fold change over compound A single agent gIC100 (6489 nM, most potent of the two agents)",lymphoma cell line DB; with fixed ABT-199 1 nM,0.9
same,compound A required for gIC100,"lymphoma cell line DB; with fixed ABT-199 1 nM, six days",7.331 µM
same,"Fold change over compound A single agent gIC50 (631 nM, most potent of the two agents)",lymphoma cell line DB; with fixed ABT-199 2 nM,1.2
same,"Fold change over compound A single agent gIC100 (6489 nM, most potent of the two agents)",lymphoma cell line DB; with fixed ABT-199 2 nM,0.9
same,compound A required for gIC100,"lymphoma cell line DB; with fixed ABT-199 2 nM, six days",7.331 µM

# Source: patent publication US20210386738A1, “COMBINATION OF PRMT5 INHIBITORS AND BCL-2 INHIBITORS” (GLAXOSMITHKLINE INTELLECTUAL PROPERTY DEVELOPMENT LIMITED, priority 2018, published 2021)
